Reference: patent publication US20090075320A1, “Method for screening an enhancer or a masker of salty taste” (priority 2006, published 2009)

Biological target: T1, hENaC channel (Homo sapiens, UniProt P37088+P51168+P51170, A314G/A350T/D375G/F339S/S458R/Y369S)
T1 sequence (P37088 1-669): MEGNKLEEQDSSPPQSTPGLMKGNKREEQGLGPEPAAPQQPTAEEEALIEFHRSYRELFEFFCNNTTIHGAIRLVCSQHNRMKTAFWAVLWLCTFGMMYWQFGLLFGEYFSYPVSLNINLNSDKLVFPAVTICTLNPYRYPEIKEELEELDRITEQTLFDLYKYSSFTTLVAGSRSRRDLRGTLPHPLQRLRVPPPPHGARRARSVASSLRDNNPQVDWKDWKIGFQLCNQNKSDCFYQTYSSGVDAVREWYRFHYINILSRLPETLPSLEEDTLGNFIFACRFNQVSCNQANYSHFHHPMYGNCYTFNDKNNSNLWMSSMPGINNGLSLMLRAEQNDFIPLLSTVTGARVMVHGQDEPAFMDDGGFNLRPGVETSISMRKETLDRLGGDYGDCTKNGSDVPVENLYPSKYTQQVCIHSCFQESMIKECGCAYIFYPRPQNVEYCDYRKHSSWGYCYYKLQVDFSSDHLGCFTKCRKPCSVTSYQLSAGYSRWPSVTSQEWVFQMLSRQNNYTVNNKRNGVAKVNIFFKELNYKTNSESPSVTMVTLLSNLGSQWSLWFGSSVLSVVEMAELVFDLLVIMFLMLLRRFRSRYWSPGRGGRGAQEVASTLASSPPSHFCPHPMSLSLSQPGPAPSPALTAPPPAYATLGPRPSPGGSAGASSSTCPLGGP
T1 sequence (P51168 1-640 A314G): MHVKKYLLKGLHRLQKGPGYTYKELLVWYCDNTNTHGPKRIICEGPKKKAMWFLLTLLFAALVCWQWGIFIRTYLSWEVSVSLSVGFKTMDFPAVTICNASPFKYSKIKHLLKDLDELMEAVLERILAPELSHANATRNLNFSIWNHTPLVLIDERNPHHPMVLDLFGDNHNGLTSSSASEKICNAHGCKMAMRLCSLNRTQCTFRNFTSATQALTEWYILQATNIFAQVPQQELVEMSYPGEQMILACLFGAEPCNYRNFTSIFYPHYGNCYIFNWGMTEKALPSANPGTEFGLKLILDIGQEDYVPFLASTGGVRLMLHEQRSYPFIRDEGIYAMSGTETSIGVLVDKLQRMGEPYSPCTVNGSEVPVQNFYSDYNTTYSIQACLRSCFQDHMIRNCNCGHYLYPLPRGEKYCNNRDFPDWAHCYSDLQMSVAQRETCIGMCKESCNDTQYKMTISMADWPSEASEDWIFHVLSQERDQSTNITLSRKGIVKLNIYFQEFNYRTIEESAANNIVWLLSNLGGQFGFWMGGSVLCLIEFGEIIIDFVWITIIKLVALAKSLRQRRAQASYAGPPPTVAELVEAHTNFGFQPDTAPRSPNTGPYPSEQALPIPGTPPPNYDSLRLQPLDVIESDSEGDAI
T1 sequence (P51170 1-649 F339S/A350T/Y369S/D375G/S458R): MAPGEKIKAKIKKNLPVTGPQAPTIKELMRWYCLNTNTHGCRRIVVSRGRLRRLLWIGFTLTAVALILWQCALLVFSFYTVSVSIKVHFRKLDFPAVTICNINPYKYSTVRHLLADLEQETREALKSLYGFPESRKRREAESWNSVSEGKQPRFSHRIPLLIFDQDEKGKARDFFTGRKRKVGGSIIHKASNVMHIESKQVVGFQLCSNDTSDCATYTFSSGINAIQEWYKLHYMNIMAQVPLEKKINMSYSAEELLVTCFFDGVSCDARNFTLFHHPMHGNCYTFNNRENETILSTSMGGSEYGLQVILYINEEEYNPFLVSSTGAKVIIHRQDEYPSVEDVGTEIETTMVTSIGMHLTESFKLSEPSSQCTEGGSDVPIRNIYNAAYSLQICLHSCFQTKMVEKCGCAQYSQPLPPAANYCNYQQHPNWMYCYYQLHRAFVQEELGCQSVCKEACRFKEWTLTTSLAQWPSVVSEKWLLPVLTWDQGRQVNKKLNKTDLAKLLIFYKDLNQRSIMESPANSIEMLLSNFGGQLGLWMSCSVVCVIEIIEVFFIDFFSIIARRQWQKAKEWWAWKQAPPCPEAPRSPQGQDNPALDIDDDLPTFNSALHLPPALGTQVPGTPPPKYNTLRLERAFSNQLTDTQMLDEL
Experiment: Primary screen MP assay (membrane potential dye): dose-response curves for inhibition by hENaC blockers
Type: cell-based
Settings: HEK293 Flp-In T-Rex hENaC cells (alpha, beta, gamma; pUR8191), loaded with MP-Blue dye for 1 hr, Flexstation; FIG. 4
Experimental: FIG. 4. Dose-response curve for different concentrations of the hENaC blockers amiloride, benzamil and phenamil (in M). Cells were loaded with MP-Blue dye for 1 hr and assayed in the Flexstation.
HEK293 Flp-In T-Rex hENaC cells were grown to about 80% confluency and dissociated from the culture dish with trypsin/EDTA for 1-5 minutes at 37° C. Dissociated cells were taken up in a concentration between 1×10^5 and 1×10^6 cells/ml in DMEM/Tet-free FCS/blasticidin/hygromycin medium. 100 μL of cells were added per well in a poly-L-lysine coated black well clear bottom 96-wells plate. The cells were grown overnight and then induced by addition of 100 μl DMEM/Tet-free FCS/blasticidin/hygromycin medium with doxycyclin (final conc. 0.25 μg/ml). Alternatively, in some wells amiloride was added to inhibit hENaC channel activity during induction.
After 20 to 48 hrs the medium was removed, cells were washed with buffer and subsequently loaded with MP-Blue (cat# R8042) or MP-Red (cat# R8123) dye (from Molecular Devices) according to the manufacturer's instructions for 1 hr at 37° C. The plates were subsequently loaded into the Flexstation II for fluorescence measurements. Compounds were added to the wells in different concentrations after a baseline measurement of 30 sec. […] The fluorescence values were normalized on the average value of the first five time points. […]

Compound	inhibition of the hENaC channel (rank order from dose-response curves)
N=C(N)NC(=O)c1nc(Cl)c(N)nc1N [amiloride]	followed by benzamil and amiloride
NC(=Nc1ccccc1)NC(=O)c1nc(Cl)c(N)nc1N [phenamil]	the best compound for inhibition
